In US6677355B1, “Hydroxamic acid compounds useful as matrix metalloproteinase inhibitors” (Warner-Lambert Company, priority 1999, dated 2004) one finds IC50 and melting point data, which are given here for seven molecules.

Data set [1] has as its target T1, MMP-7FL (matrilysin full-length enzyme) (Homo sapiens, UniProt P09237).
T1 construct: made in house; host or cells: E. coli
T1 sequence (P09237 95-267): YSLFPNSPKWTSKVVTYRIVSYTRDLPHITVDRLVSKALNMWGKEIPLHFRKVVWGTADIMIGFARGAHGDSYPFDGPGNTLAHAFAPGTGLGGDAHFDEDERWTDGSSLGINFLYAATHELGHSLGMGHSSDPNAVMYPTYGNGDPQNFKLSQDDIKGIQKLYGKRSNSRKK
In words: MMP-7FL inhibition, thiopeptolide substrate hydrolysis. The data set is classed as biochemical. To be noted: average where multiple samples assayed. On the procedure: (§1) The compounds were evaluated in order to determine their respective IC50 values, i.e., the micromolar concentration of compound required to achieve a 50% inhibition of the hydrolytic activity of the respective enzymes.
(§2) Experiments were carried out with the full-length (“FL”) and/or catalytic domains (“CD”) of the proteinases. […] IC50 values were determined using a thiopeptolide substrate, Ac-Pro-Leu-Gly-thioester-Leu-Leu-Gly-OEt (Ye Q.-Z., Johnson L. L., Hupe D. J., and Baragi V., “Purification and Characterization of the Human Stromelysin Catalytic Domain Expressed in Escherichia coli,” Biochemistry, 1992;31:11231-11235; Ye Q.-Z., Johnson L. L., Yu A. E., and Hupe D., “Reconstructed 19 kDa Catalytic Domain of Gelatinase A IAAP,” Biochemistry, 1995;34:4702-4708.)
(§3) The tested MMPs are available to those skilled in the art. For example, MMP-1 can be obtained from Washington University School of Medicine, St. Louis, Mo. MMP-7 can be obtained in accordance with the known procedure set forth by Ye Q. Z., Johnson L. L., and Baragi V., “Gene Syntheses and Expression in E. coli for PUMP, a Human Matrix Metalloproteinase,” Biochem. and Biophys. Res. Comm., 1992;186:143-149. MMP-13 can be obtained in accordance with the known procedure set forth by Freije J. M. P. et al., “Molecular Cloning and Expression of Collagenase-3, a Novel Human Matrix Metalloproteinase Produced by Breast Carcinomas,” J. Bio. Chem., 1994;269:16766-16773. MMP-13CD can also be expressed from a synthetic gene and purified from Escherichia coli cell culture according to a previously described method (Ye Q.-Z., Johnson L. L., and Baragi V., “Gene Synthesis and Expression in E. coli for PUMP, a Human Matrix Metalloproteinase,” Biochemical and Biophysical Research Communications, 1992;186:143-149). Hydrolysis of the thiopeptolide substrate Ac-Pro-Leu-Gly-thioester-Leu-Leu-Gly-OEt (Bachem) was used as the primary screen to determine IC50 values for MMP inhibitors. A 100 μL reaction contains 1 mM 5,5′-dithiobis(2-nitrobenzoic acid) (DTNB), 100 μM substrate, 0.1% BRIJ® 35, PROTEIN GRADE®, Detergent, 10% solution, Sigma, St. Louis, Mo. [polyoxyethyleneglycol dodecyl ether; polyoxyethylene (23) lauryl ether], enzyme, and inhibitor in the appropriate reaction buffer. Activated full-length enzymes are assayed at 5 nM, Stromelysin Catalytic Domain (SCD) at 10 nM, and Gelatinase A Catalytic Domain (GaCD) at 1 nM. Inhibitors are screened from 100 μM to 1 nM. Full-length enzymes (e.g., MMP-1 and MMP-7) are assayed in 50 mM 4-(2-[…])-piperazine-1-ethane sulfonic acid (HEPES), 10 mM CaCl2, pH 7.0; SCD in 50 mM 2-morpholinoethane sulfonic acid monohydrate (MES), 10 mM CaCl2, pH 6.0; and GaCD in 50 mM 3-morpholtriopropane sulfonic acid (MOPS), 10 mM CaCl2, 10 μM ZnCl2, pH 7.0. The change in absorbance at 405 nanometers is monitored on a ThermoMax microplate reader at room temperature continuously for 20 minutes.
(§4) The number in parenthesis indicates the number of samples assayed.

Data set [2] has as its target MMP-9FL (gelatinase B full-length enzyme) (Homo sapiens, UniProt P14780). In words: MMP-9FL inhibition, thiopeptolide substrate hydrolysis. The data set is classed as biochemical. To be noted: average where multiple samples assayed. The protocol: as §1, §2, §3, §4
In data set [3] the target is T2, MMP-13CD (collagenase-3 catalytic domain) (Homo sapiens, UniProt P45452).
T2 construct: MMP-13CD (collagenase-3 catalytic domain); made in house; host or cells: Escherichia coli
As to the kind of experiment: MMP-13CD inhibition, thiopeptolide substrate hydrolysis. The data set is classed as biochemical. The settings on record: average where multiple samples assayed. The protocol: as §1, §2, §3, §4

Data set [4] concerns the target T3, MMP-3CD (stromelysin-1 catalytic domain) (Homo sapiens, UniProt P08254).
T3 construct: MMP-3CD (stromelysin-1 catalytic domain); made in house; host or cells: Escherichia coli
As to the kind of experiment: MMP-3CD inhibition, thiopeptolide substrate hydrolysis. The class given is biochemical. To be noted: average where multiple samples assayed. On the procedure:
as §1, §2, §3, §4

In data set [5] the target is T4, MMP-1FL (collagenase-1 full-length enzyme) (Homo sapiens, UniProt P03956).
T4 construct: purchased Washington University School of Medicine, St. Louis, Mo
T4 sequence (P03956 100-469): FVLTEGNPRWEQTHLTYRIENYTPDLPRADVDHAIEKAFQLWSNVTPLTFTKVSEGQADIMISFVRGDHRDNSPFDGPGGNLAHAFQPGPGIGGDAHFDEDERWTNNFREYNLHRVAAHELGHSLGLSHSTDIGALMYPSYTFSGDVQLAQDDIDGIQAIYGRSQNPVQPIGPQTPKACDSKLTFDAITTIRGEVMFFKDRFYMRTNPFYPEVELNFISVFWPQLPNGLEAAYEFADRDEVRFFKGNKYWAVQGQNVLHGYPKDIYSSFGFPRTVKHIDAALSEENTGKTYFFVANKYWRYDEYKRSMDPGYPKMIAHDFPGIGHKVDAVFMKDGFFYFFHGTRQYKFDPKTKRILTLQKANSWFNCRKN
In words: MMP-1FL inhibition, thiopeptolide substrate hydrolysis. The class given is biochemical. To be noted: average where multiple samples assayed. On the procedure: as §1, §2, §3, §4

Data set [6] deals with MMP-2CD (gelatinase A catalytic domain) (Homo sapiens, UniProt P08253). In words: MMP-2CD inhibition, thiopeptolide substrate hydrolysis. The settings on record: average where multiple samples assayed. The data set is classed as biochemical. On the procedure: as §1, §2, §3, §4
The target of data set [7] is T5, MMP-2FL (gelatinase A full-length enzyme) (Homo sapiens, UniProt P08253).
T5 sequence (P08253 110-660): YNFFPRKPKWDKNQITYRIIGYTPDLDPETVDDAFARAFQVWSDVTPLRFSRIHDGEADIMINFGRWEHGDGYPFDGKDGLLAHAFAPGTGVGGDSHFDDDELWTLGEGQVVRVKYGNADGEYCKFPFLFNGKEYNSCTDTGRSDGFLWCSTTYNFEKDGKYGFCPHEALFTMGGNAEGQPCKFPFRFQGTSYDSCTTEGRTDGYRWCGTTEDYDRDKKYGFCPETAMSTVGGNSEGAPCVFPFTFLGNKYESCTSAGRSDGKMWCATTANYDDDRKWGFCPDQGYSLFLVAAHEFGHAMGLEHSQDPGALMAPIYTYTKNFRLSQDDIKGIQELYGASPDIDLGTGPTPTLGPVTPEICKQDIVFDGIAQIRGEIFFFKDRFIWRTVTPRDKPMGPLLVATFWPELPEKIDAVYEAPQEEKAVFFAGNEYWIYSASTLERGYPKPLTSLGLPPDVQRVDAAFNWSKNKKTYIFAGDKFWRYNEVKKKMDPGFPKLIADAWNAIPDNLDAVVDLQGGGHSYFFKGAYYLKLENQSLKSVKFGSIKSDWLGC
As to the kind of experiment: MMP-2FL inhibition, thiopeptolide substrate hydrolysis. The data set is classed as biochemical. To be noted: average where multiple samples assayed. The protocol: as §1, §2, §3, §4

Data set [8] addresses T6, MMP-14CD (membrane-type MMP-1 catalytic domain) (Homo sapiens, UniProt P50281).
T6 construct: MMP-14CD (membrane-type MMP-1 catalytic domain)
As to the kind of experiment: MMP-14CD inhibition, thiopeptolide substrate hydrolysis. The settings on record: average where multiple samples assayed. The class given is biochemical. On the procedure:
as §1, §2, §3, §4

Chain of MMP-2CD (gelatinase A catalytic domain) (P08253 with tags, fused parts or gaps DEL220-393): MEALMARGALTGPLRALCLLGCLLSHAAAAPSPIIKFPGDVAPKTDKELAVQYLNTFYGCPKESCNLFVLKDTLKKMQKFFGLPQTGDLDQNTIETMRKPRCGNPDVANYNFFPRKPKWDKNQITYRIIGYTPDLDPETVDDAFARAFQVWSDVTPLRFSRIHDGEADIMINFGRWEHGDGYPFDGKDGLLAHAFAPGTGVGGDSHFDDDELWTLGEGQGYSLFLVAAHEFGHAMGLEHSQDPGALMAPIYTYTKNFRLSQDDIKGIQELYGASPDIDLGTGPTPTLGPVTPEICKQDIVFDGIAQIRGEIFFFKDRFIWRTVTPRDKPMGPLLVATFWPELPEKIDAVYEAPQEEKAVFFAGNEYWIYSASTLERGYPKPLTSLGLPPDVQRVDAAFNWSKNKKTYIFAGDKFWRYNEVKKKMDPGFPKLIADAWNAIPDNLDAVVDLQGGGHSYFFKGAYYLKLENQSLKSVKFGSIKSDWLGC
T3 sequence (P08254 100-272 limits assumed): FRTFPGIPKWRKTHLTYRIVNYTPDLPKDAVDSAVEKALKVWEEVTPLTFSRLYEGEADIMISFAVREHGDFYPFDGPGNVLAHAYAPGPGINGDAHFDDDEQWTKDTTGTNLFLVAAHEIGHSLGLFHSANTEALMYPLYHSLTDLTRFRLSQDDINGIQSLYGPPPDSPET
Chain of MMP-9FL (gelatinase B full-length enzyme) (P14780 107-707 limits assumed, species assumed): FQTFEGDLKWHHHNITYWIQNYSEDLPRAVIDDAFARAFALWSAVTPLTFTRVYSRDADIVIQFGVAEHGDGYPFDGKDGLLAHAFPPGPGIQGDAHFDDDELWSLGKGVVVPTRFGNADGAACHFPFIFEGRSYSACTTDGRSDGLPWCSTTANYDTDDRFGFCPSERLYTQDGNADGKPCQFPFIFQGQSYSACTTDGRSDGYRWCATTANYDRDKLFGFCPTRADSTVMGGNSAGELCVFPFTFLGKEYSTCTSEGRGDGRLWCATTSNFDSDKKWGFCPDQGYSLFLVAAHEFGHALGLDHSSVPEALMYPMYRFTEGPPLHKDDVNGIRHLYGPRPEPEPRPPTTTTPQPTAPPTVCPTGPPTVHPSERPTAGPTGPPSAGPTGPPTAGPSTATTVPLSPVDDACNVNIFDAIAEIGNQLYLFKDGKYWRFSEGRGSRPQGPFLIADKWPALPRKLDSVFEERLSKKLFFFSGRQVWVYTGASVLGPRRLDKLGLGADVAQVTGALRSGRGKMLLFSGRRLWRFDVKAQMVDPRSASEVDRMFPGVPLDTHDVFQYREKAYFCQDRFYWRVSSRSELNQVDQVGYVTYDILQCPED

`O=C(NO)C1(NS(=O)(=O)c2ccc3c(c2)oc2ccccc23)CCOCC1` [Example 31, 4-(Dibenzofuran-3-sulfonylamino)-tetrahydro-pyran-4-carboxylic acid hydroxyamide] came in with a melting point of 160 to 162 °C. The molecule further showed an IC50 in [1] of 3000 nM. This molecule also came in with an IC50 in data set [2] of 250 nM. In addition, inhibition in data set [3] was half-maximal at 48 nM (IC50). The molecule further came in with an IC50 in [4] of 14.7 nM. In [5], this molecule displayed an IC50 of 380 nM. Further, in data set [6], the half-inhibitory concentration (IC50) turned out to be 2.3 nM. Also, the IC50 in [7] was determined as 5.25 nM. The IC50 in [8] is 5.75 nM.
Turning to `CC(C)(NS(=O)(=O)c1ccc2c(c1)oc1ccccc12)C(=O)O` [Example 29, 2-(Dibenzofuran-3-sulfonylamino)-2-methyl-propionic acid], the melting point was 220 to 224 °C. Besides, in data set [1], 34000 nM corresponded to half-maximal inhibition (IC50). Moreover, the 50% inhibitory concentration (IC50) in data set [2] came out at 11500 nM. Besides, in data set [3], the IC50 amounted to 450 nM. Also, the IC50 in data set [4] was 8.35 nM. The molecule further yielded an IC50 in data set [5] of 8250 nM. Moreover, it took 2.65 nM to reach half-maximal inhibition in data set [6] (IC50). The same molecule had an IC50 in [7] of 19.8 nM. In [8], this molecule registered an IC50 of 22.5 nM.
`O=C(NO)C1(NS(=O)(=O)c2ccc3oc4cc(Br)ccc4c3c2)CCCC1` [Example 32, 1-(7-Bromo-dibenzofuran-2-sulfonylamino)-cyclopentane carboxylic acid hydroxamide]: the IC50 in data set [1] stood at 350 nM; in [2], 13000 nM; in [3], 165 nM; in data set [4] it was 35 nM; in data set [5], 5750 nM; in data set [6], 82.7 nM. The IC50 in data set [7] is 205 nM; in data set [8], 340 nM.
Consider `CC(C)(NS(=O)(=O)c1ccc2c(c1)oc1ccccc12)C(=O)NO` [Example 30, 2-(Dibenzofuran-3-sulfonylamino)-N-hydroxy-2-methyl-propionamide], for which the melting point fell in the range of 168 to 169 °C. The same molecule returned an IC50 in [1] of 100000 nM. In [2], half-maximal inhibition (IC50) was put at 860 nM. This molecule came in with an IC50 in [3] of 105 nM. The 50% inhibitory concentration (IC50) in [4] turned out to be 83.5 nM. In addition, the midpoint of inhibition in data set [5], the IC50, lay at 905 nM. Besides, in data set [6], half-maximal inhibition (IC50) was put at 4.3 nM. Also, in [7], the IC50 was 4.75 nM. This molecule displayed an IC50 in [8] of 13.5 nM.
Turning to `O=C(NO)C1(NS(=O)(=O)c2ccc3c(c2)oc2ccccc23)CCCCC1` [Example 28, 1-(Dibenzofuran-3-sulfonylamino)-cyclohexanecarboxylic acid hydroxyamide], the melting point was in the range of 184 to 186 °C. Further, the concentration for half-maximal inhibition (IC50) in [1] was determined as 4050 nM. In data set [2], this molecule registered an IC50 of 135 nM. Also, inhibition in data set [3] was half-maximal at 49 nM (IC50). The IC50 in data set [4] was 15.5 nM. Half-maximal inhibition in data set [5] (IC50) was put at 295 nM. Besides, 1.7 nM corresponded to half-maximal inhibition in data set [6] (IC50). In data set [7], 4.5 nM corresponded to half-maximal inhibition (IC50). The IC50 in data set [8] was 3.9 nM.
For `O=C(O)C1(NS(=O)(=O)c2ccc3c(c2)oc2ccccc23)CCCCC1` [Example 27, 1-(Dibenzofuran-3-sulfonylamino)-cyclohexanecarboxylic acid], the melting point lay within 239 to 243 °C. This molecule also displayed an IC50 in data set [1] of 4250 nM. Further, inhibition in [2] was half-maximal at 3700 nM (IC50). The half-maximal inhibitory concentration (IC50) in data set [3] worked out at 230 nM. Besides, in [4], the IC50 was found to be 9.25 nM. In data set [5], this molecule showed an IC50 of 1750 nM. Besides, in data set [6], half-maximal inhibition (IC50) was put at 2.7 nM. Half-maximal inhibition in data set [7] (IC50) was put at 23 nM. This molecule also displayed an IC50 in data set [8] of 26.5 nM.
For the molecule `CC(C)(NS(=O)(=O)c1ccc2oc3cc(Cl)ccc3c2c1)C(=O)NO` [Example 33, 2-(7-Chloro-dibenzofuran-2 sulfonylamino)-N-hydroxy-2-methyl-propionamide], the IC50 turned out to be 920 nM in data set [1]; 15000 nM in data set [2]; 110 nM in [3]; 43 nM in data set [4]; 3050 nM in data set [5]; 81 nM in data set [6]. Further, the IC50 in data set [7] worked out at 125 nM; in [8] it was 300 nM.
